Values after ≈ are worked out from the molar mass of the structure shown.
Tests used:
[1] = target: T1, Non-receptor tyrosine-protein kinase TYK2 (Homo sapiens, UniProt P29597); experiment: Inhibition of TYK2 in human T-blast cells assessed as IL-12 induced STAT4 phosphorylation at Tyr694 residue preincubated for 30 mins followed by IL-12 stimulation and measured after 20 mins by AlphaScreen assay; format: cell-based, T-blast cell
[2] = target: Tyrosine-protein kinase JAK1 (Homo sapiens, UniProt P23458); experiment: Inhibition of JAK1 in human TF-1 cells assessed as reduction in IL-6 induced STAT3 phosphorylation at Tyr705 residue preincubated for 30 mins followed by IL-6 stimulation and measured after 30 mins by AlphaScreen assay; format: cell-based
[3] = Metabolic stability in human hepatocytes assessed as intrinsic clearance for unbound fraction of drug; format: ADME, cell-based, Hepatocyte
[4] = Thermodynamic solubility in PBS at pH 7.4; format: physicochemical; conditions: read-out: Therm_solubility
[5] = target: Tyrosine-protein kinase JAK2 (Homo sapiens, UniProt O60674); experiment: Inhibition of JAK2 in human UT7 cells assessed as reduction in erythropoietin induced STAT5 phosphorylation preincubated for 30 mins followed by erythropoietin stimulation and measured after 20 mins by AlphaScreen assay; format: cell-based
CYP3A4 [6] = target: T2, CYP3A4 (Homo sapiens, UniProt P08684); experiment: Time dependent inhibition of CYP3A4 in human liver microsomes using midazolam as substrate assessed as 1'-OH midazolam metabolite formation at 50 uM preincubated for 30 mins in presence of NADPH followed by substrate addition and measured after 15 mins by HPLC-MS/MS analysis relative to control; format: ADME, Microsome; conditions: probe midazolam, time 45 min, read-out: TDI
CYP3A4 [7] = target: T2, CYP3A4; experiment: Induction of CYP3A4 in human hepatocytes assessed as maximum activation in mRNA level at 10 uM incubated for 24 hrs by RT-qPCR analysis relative to control; format: ADME, cell-based, Hepatocyte; conditions: read-out: max activation
[8] = Unbound clearance in rat blood at 1 mg/kg, iv or 1 mg/kg,po; format: ADME, organism-based; conditions: in vivo
[9] = Half life in rat at 1 mg/kg, iv or 1 mg/kg,po; format: ADME, organism-based; conditions: in vivo
[10] = Volume of distribution at steady state in rat at 1 mg/kg, iv or 1 mg/kg,po; format: ADME, organism-based; conditions: in vivo, read-out: Vdss
[11] = Oral bioavailability in rat at 1 mg/kg; format: ADME, organism-based; conditions: in vivo
[12] = Metabolic stability in dog hepatocytes assessed as intrinsic clearance for unbound fraction of drug; format: ADME, cell-based, Canis lupus familiaris, Hepatocyte
[13] = Half life in dog at 1 mg/kg, iv; format: ADME, organism-based, Canis lupus familiaris; conditions: in vivo
[14] = Oral bioavailability in dog at 1 mg/kg; format: ADME, organism-based, Canis lupus familiaris; conditions: in vivo
[15] = Unbound clearance in cynomolgus monkey blood at 1 mg/kg, iv; format: ADME, organism-based, Macaca fascicularis; conditions: in vivo
[16] = Half life in cynomolgus monkey at 1 mg/kg, iv; format: ADME, organism-based, Macaca fascicularis; conditions: in vivo
[17] = AUC (0 to infinity) in cynomolgus monkey at 1 mg/kg,po; format: ADME, organism-based, Macaca fascicularis; parameters: dose 1 mg/kg, route po; conditions: in vivo
[18] = target: T1, Non-receptor tyrosine-protein kinase TYK2; experiment: Inhibition of TYK2 in human whole blood assessed as decrease in STAT4 phosphorylation preincubated for 30 mins followed by human IL-23 stimulation and measured after 20 mins by flow cytometry; format: tissue-based
[19] = target: Non-receptor tyrosine-protein kinase TYK2 (Mus musculus, UniProt Q9R117); experiment: Inhibition of TYK2 in C57/B6 mouse whole blood assessed as decrease in STAT4 phosphorylation preincubated for 30 mins followed by mouse IL-12p70 stimulation and measured after 20 mins by flow cytometry; format: tissue-based
[20] = In vivo inhibition of TYK2 in IL-12/IL-18 induced C57/B6 mouse model assessed as reduction in serum IFN-gamma production at 10 mg/kg,po pretreated for 30 mins prior to IL-12/IL-18 challenge and measured after 4 hrs by MSD assay; format: functional; conditions: C57/B6, 4.5 h, time 270 min
[21] = In vivo inhibition of TYK2 in IL-12/IL-18 induced C57/B6 mouse model assessed as reduction in serum IFN-gamma production at 30 mg/kg,po pretreated for 30 mins prior to IL-12/IL-18 challenge and measured after 4 hrs by MSD assay; format: functional; conditions: C57/B6, 4.5 h, time 270 min
[22] = In vivo inhibition of TYK2 in IL-12/IL-18 induced C57/B6 mouse model assessed as reduction in serum IFN-gamma production at 600 mg/kg,po pretreated for 30 mins prior to IL-12/IL-18 challenge and measured after 4 hrs by MSD assay; format: functional; conditions: C57/B6, 4.5 h, time 270 min
Mus musculus [23] = experiment: Anti-inflammatory activity in B10.RII mouse model of mouse IL-23 mini circle induced psoriasiform dermatitis assessed as decrease in ear thickness at 10 mg/kg,po BID for 5 days by caliper analysis; format: functional; parameters: scale not given: the % may be the effect or the level left; conditions: time 5 day
Mus musculus [24] = experiment: Anti-inflammatory activity in B10.RII mouse model of mouse IL-23 mini circle induced psoriasiform dermatitis assessed as decrease in ear thickness at 30 mg/kg,po BID for 5 days by caliper analysis; format: functional; parameters: scale not given: the % may be the effect or the level left; conditions: time 5 day
Mus musculus [25] = experiment: Anti-inflammatory activity in B10.RII mouse model of mouse IL-23 mini circle induced psoriasiform dermatitis assessed as decrease in ear thickness at 100 mg/kg,po QD for 5 days by caliper analysis; format: functional; parameters: scale not given: the % may be the effect or the level left; conditions: time 5 day
[26] = In vivo inhibition of TYK2 in po dosed IL-12/IL-18 induced C57/B6 mouse model assessed as reduction in serum IFN-gamma production measured at 1 to 10000 ng/ml of whole blood drug exposure level measured after 30 mins; format: functional, organism-based; conditions: C57/B6, 0.5 h
Mus musculus [27] = experiment: Anti-inflammatory activity in po dosed B10.RII mouse model of mouse IL-23 mini circle induced psoriasiform dermatitis assessed as decrease in ear thickness measured at 1 to 100 ng/ml of whole blood drug exposure level measured after 30 mins; format: functional, organism-based; conditions: 0.5 h
Mus musculus [28] = experiment: Anti-inflammatory activity in po dosed B10.RII mouse model of mouse IL-23 mini circle induced psoriasiform dermatitis assessed as decrease in ear thickness measured at 101 to 10000 ng/ml of whole blood drug exposure level measured after 30 mins; format: functional, organism-based; conditions: 0.5 h

T1 sequence (P29597 whole entry): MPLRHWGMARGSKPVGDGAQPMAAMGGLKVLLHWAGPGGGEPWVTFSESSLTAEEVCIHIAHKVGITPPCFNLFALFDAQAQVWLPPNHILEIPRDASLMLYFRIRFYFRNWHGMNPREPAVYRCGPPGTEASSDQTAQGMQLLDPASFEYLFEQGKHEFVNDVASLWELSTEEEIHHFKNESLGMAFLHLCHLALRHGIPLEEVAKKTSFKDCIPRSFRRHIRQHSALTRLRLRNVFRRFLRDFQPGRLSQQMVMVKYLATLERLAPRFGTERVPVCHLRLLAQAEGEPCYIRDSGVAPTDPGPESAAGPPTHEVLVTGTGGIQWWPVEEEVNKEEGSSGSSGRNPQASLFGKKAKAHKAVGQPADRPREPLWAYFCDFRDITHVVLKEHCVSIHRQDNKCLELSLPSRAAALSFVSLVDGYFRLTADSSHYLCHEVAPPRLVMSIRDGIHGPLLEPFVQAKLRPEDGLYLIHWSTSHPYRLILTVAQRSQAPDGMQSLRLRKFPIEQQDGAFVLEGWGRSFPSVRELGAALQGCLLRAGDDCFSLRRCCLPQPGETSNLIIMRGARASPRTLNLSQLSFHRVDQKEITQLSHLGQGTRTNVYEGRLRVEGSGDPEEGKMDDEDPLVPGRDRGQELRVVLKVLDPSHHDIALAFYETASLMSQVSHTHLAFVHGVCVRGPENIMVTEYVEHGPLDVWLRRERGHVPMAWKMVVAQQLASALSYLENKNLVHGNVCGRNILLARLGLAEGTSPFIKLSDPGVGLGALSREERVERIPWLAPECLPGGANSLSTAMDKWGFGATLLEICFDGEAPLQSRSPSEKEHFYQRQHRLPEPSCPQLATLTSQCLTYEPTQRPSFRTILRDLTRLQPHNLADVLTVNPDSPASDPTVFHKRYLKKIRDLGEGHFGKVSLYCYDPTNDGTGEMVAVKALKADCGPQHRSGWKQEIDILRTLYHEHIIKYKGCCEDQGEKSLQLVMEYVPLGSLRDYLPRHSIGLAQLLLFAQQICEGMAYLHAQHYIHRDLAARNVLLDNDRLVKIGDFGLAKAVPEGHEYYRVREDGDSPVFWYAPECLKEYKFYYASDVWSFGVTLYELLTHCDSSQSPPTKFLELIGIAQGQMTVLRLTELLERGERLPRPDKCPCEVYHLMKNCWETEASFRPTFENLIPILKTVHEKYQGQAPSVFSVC
T2 sequence (P08684 whole entry): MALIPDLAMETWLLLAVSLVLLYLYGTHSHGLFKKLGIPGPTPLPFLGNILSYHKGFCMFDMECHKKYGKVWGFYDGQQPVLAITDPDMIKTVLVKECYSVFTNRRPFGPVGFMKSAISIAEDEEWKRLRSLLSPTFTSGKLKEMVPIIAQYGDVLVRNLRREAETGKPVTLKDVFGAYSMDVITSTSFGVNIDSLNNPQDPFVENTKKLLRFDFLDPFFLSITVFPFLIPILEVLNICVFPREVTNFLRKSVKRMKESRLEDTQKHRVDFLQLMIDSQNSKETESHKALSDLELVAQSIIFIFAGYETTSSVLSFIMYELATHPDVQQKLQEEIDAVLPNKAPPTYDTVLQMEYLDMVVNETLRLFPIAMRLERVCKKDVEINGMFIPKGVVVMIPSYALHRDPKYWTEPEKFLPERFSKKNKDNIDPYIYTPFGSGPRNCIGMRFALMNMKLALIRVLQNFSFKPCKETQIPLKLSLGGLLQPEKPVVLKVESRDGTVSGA
Tyrosine-protein kinase JAK1, sequence (P23458 whole entry): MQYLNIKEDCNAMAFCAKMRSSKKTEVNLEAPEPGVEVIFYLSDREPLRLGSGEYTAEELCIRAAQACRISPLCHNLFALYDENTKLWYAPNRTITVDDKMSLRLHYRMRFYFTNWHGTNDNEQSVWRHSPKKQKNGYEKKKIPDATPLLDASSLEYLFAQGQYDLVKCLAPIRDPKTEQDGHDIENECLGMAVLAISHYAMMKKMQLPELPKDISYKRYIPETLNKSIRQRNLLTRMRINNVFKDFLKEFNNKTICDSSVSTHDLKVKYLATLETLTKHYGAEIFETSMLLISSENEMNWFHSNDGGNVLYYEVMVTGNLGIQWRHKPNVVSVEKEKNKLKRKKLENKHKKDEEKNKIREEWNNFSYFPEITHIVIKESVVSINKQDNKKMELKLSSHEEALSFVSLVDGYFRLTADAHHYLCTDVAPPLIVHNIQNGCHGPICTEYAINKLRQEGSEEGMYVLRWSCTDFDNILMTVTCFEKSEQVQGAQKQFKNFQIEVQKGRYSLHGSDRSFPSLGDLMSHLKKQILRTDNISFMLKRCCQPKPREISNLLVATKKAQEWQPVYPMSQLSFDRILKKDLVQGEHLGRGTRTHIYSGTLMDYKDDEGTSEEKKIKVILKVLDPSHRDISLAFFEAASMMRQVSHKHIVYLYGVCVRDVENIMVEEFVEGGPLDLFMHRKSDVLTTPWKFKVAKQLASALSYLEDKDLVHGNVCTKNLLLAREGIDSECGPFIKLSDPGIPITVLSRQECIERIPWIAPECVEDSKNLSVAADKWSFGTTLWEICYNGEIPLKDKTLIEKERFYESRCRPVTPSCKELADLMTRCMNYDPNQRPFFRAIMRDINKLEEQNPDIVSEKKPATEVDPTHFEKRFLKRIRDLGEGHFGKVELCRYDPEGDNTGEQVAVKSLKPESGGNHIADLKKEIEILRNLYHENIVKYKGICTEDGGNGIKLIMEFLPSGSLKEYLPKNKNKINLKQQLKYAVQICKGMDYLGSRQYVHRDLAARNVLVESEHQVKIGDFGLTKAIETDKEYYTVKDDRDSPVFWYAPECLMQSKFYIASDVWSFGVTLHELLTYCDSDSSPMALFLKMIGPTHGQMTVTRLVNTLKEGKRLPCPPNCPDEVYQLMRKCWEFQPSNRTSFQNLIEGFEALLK
Non-receptor tyrosine-protein kinase TYK2 (Mus musculus, UniProt Q9R117), sequence (Q9R117 whole entry): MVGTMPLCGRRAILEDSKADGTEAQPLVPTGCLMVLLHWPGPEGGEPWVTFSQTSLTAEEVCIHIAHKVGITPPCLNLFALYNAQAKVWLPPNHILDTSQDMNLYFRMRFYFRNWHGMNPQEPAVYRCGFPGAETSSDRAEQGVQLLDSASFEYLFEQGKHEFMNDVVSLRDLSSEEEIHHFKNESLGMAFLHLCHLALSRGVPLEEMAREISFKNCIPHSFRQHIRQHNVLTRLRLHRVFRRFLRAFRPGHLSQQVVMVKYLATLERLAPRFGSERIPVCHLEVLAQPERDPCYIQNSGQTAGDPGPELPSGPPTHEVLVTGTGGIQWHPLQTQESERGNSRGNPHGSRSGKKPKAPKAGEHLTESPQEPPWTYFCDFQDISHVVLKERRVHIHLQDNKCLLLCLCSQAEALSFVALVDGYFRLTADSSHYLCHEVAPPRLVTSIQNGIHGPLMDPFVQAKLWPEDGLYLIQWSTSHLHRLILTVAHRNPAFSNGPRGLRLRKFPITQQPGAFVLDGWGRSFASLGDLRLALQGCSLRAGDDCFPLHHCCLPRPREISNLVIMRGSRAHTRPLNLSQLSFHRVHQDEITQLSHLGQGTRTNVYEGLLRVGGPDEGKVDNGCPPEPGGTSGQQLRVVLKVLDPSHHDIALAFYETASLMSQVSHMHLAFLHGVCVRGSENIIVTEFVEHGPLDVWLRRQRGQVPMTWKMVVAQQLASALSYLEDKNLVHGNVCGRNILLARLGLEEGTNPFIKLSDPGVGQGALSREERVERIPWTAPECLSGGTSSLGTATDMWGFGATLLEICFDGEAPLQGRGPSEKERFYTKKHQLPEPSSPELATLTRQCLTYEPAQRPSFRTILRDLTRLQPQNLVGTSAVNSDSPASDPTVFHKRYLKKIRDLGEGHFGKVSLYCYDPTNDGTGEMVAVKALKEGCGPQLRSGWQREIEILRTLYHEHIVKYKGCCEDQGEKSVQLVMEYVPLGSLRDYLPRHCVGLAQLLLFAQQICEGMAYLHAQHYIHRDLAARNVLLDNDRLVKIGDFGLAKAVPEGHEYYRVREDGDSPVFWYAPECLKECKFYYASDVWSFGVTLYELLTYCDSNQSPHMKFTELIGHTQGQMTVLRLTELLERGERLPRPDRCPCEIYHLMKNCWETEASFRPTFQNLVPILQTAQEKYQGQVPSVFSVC

## COCc1cc(-c2cn(C3COC3)c3cnc(NC(C)=O)cc23)nc([C@]2(OC)CCOC2)c1
[1]
  EC50: 195 nM
[2]
  EC50: > 20000 nM
[3]
  CL free: 31.7 mL/min/kg
[4]
  solubility thermodynamic: 708 µM (≈ 320 µg/mL)
[5]
  EC50: > 20000 nM
CYP3A4 [6]
  inhibition at 0.25 h, 50 µM: 22%
CYP3A4 [7]
  Emax at 24 h, 10 µM: 2%
[8]
  CL free: 68.3 mL/min/kg
[9]
  half-life: 0.6 h
[10]
  Vd: 1.9 L/kg
[11]
  bioavailability: 19%
[12]
  CL free: 21.7 mL/min/kg
[13]
  half-life: 4.5 h
[14]
  bioavailability: 88%
[15]
  CL free: 38.3 mL/min/kg
[16]
  half-life: 1.2 h
[17]
  AUC(0-inf): 80 ng·h/mL
[18]
  EC50: 160 nM
[19]
  EC50: 1400 nM
[20]
  inhibition in vivo at 10 mg/kg: 24%
[21]
  inhibition in vivo at 30 mg/kg: 77%
[22]
  inhibition in vivo at 600 mg/kg: 99%
Mus musculus [23]
  Activity: 38%
Mus musculus [24]
  Activity: 51%
Mus musculus [25]
  Activity: 58%
[26]
  IC50: 3.08 µg/mL (≈ 6.81 µM)
Mus musculus [27]
  EC50: 0.104 µg/mL (≈ 0.23 µM)
Mus musculus [28]
  EC50: 0.3 µg/mL (≈ 0.663 µM)
